{
  "source": "patent US20070225338A1",
  "about": "“Juvenile Hormone Analogs for Control of Leafhopper and Treehopper Pests” (priority 2004, published 2007)",
  "key": {"GWSS": {"system": "GWSS", "details": "cited from earlier work; for efficacy against GWSS (CDFA nursery shipping protocol list): in vivo; for speed of activity against GWSS: tested over several weeks, Redak and Bethke"}, "[1]": {"system": "Draeculacephala crassicornis", "details": "topical, substrate and vapor treatments; cited from earlier work"}, "[2]": {"system": "Homalodisca coagulata females", "assay": "Example 4: mortality of JH analog-treated field-collected gravid females", "format": "in vivo", "details": "10 days post-treatment, fifteen females per treatment", "experimental": "The treatment rates for all three: methoprene, kinoprene, and hydroprene are listed below.\nThis example summarizes two ongoing tests involving field-collected gravid females and eggs oviposited less than 24 hours prior to treatment. […] After eclosion the neonates will be held on host plants until death or successful development to the second instar, which ever occurs first.\nFifteen females were used for each treatment. […] The females will be dissected to determine if there are sub-lethal effects of the JH analogs on the reproductive system."}, "[3]": {"system": "egg parasitoids, Gonatocerus spp.", "assay": "Impact on egg parasitoids", "details": "non-target Gonatocerus spp."}, "[4]": {"system": "Homalodisca coagulata (Say)", "assay": "Example 1: females in diapause sprayed with compound, oviposition and dissection of reproductive system", "format": "in vivo", "text": "(§1) As described in Examples 1 and 2, the inventors topically applied methoprene in an aqueous solution to GWSS females that were: 1) over-wintering in reproductive diapause or 2) females that were newly eclosed adults and not yet reproductively active. […] Untreated females ordinarily will begin reproductive cycles 10-12 days post eclosion.\nTen female Homalodisca coagulata (Say) were sprayed until visibly wet with the candidate compound. They were then placed into a wooden 1 m screened cage that was provisioned with five males and glabrous soybean, Glycine max (L.) A similar untreated control cage was also set up with females sprayed with distilled water. All leafhoppers were taken from a greenhouse culture and were in the process of terminating winter reproductive diapause. Females were checked daily for the presence of brochosomes and plants were checked for egg masses. Cages were in a greenhouse maintained at 32° C. and equipped with artificial lighting for a 14:10 photoperiod. Surviving females were dissected after thirty days and their reproductive status was evaluated."}, "GWSS females": {"system": "GWSS females", "assay": "Treatment of reproductively-active females", "format": "in vivo, Homalodisca coagulata", "details": "following weeks of evaluation"}, "H. coagulata": {"system": "H. coagulata", "assay": "Example 2: newly-eclosed adult females treated with compound, dissection after 36 days", "format": "in vivo, Homalodisca coagulata", "experimental": "as §1\nSeven newly eclosed adult female H. coagulata were treated with the compound. The solution was applied with an aerosol device until individuals were noticeable wet. After treatment, female were placed into a wooden 1 m-screened cage that was provisioned with crape myrtle, eastern saltbush, and soybean. Five males of unknown ages were added to the cage. Female were dissected after 36 days. Males were discarded."}, "GWSS nymphs": {"system": "GWSS nymphs", "assay": "Treatment of GWSS nymphs", "format": "in vivo, Homalodisca coagulata"}, "[5]": {"details": "treatment A: 1/100 of recommended dose"}, "[6]": {"details": "treatment B: 1/10 of recommended dose"}, "[7]": {"details": "treatment D: 10× recommended dose"}, "[8]": {"details": "treated diapausing females, one value per surviving female, dissected after thirty days"}, "[9]": {"details": "newly eclosed adult females, one value per female, 36 days post-treatment"}},
  "note": "Values joined by “and” are separate entries in the source; they are usually repeats but may differ in a detail not shown here. Equal entries are not always repeated.",
  "data": [
    {"compound": "Cc1c(COC(=O)[C@@H]2[C@H](/C=C(\\Cl)C(F)(F)F)C2(C)C)cccc1-c1ccccc1", "note": "(racemic) [bifenthrin]", "values": [
      {"measurement": "efficacy against GWSS (CDFA nursery shipping protocol list)", "setting": "GWSS", "value": "some efficacy"}
    ]},
    {"compound": "CC(COc1ccc(Oc2ccccc2)cc1)Oc1ccccn1", "note": "(racemic) [pyriproxifen, 4-phenoxyphenyl (RS)-2-(2-pyridyloxy)propyl ether]", "values": [
      {"measurement": "speed of activity against GWSS", "setting": "GWSS", "value": "too slow to be useful for eradication purposes"}
    ]},
    {"compound": "COC(=O)C=C(C)CCC=C(C)CCC1OC1(C)C", "note": "(stereo not shown) [Juvenile hormone III]", "values": [
      {"measurement": "effect on diapause", "setting": "[1]", "value": "terminated diapause"}
    ]},
    {"compound": "COP(=O)(NC(C)=O)SC", "note": "(stereo not shown) [acephate]", "values": [
      {"measurement": "efficacy against GWSS (CDFA nursery shipping protocol list)", "setting": "GWSS", "value": "some efficacy"}
    ]},
    {"compound": "CC(C)N1C(=O)N(c2ccccc2)CS/C1=N\\C(C)(C)C", "note": "[buprofizen]", "values": [
      {"measurement": "speed of activity against GWSS", "setting": "GWSS", "value": "too slow to be useful for eradication purposes"}
    ]},
    {"compound": "CNC(=O)Oc1cccc2ccccc12", "note": "[carbaryl]", "values": [
      {"measurement": "efficacy against GWSS (CDFA nursery shipping protocol list)", "setting": "GWSS", "value": "some efficacy"}
    ]},
    {"compound": "CCOP(=S)(OCC)Oc1nc(Cl)c(Cl)cc1Cl", "note": "[chlorpyrifos]", "values": [
      {"measurement": "efficacy against GWSS (CDFA nursery shipping protocol list)", "setting": "GWSS", "value": "some efficacy"}
    ]},
    {"compound": "CC1(C)C(C=C(Cl)Cl)C1C(=O)OC(C#N)c1ccc(F)c(Oc2ccccc2)c1", "note": "(stereo not shown) [cyfluthrin]", "values": [
      {"measurement": "efficacy against GWSS (CDFA nursery shipping protocol list)", "setting": "GWSS", "value": "some efficacy"}
    ]},
    {"compound": "CC1(C)[C@H](C(=O)O[C@H](C#N)c2cccc(Oc3ccccc3)c2)[C@@H]1C=C(Br)Br", "note": "[deltamethrin]", "values": [
      {"measurement": "efficacy against GWSS (CDFA nursery shipping protocol list)", "setting": "GWSS", "value": "some efficacy"}
    ]},
    {"compound": "CC1(C)C(C(=O)OC(C#N)c2cccc(Oc3ccccc3)c2)C1(C)C", "note": "(stereo not shown) [fenpropathrin]", "values": [
      {"measurement": "efficacy against GWSS (CDFA nursery shipping protocol list)", "setting": "GWSS", "value": "some efficacy"}
    ]},
    {"compound": "CCOC(=O)/C=C(C)/C=C/CC(C)CCCC(C)C", "note": "(stereo not shown) [hydroprene, ethyl (2E,4E)-3,7,11-trimethyl-2,4-dodecadienoate]", "values": [
      {"measurement": "number of dead female Homalodisca coagulata", "setting": "[2]; [5]", "value": 3},
      {"measurement": "number of dead female Homalodisca coagulata", "setting": "[2]; [6]", "value": 0},
      {"measurement": "number of dead female Homalodisca coagulata", "setting": "[2]; treatment C: recommended dose", "value": 0},
      {"measurement": "number of dead female Homalodisca coagulata", "setting": "[2]; [7]", "value": 14}
    ]},
    {"compound": "O=[N+]([O-])NC1=NCCN1Cc1ccc(Cl)nc1", "note": "[imidaclopid]", "values": [
      {"measurement": "efficacy against GWSS (CDFA nursery shipping protocol list)", "setting": "GWSS", "value": "some efficacy"}
    ]},
    {"compound": "C#CCOC(=O)/C=C(C)/C=C/CC(C)CCCC(C)C", "note": "[kinoprene, 2-propynl (2E,4E)-(7S)-3,7,11-trimethyl-2,4-dodecadienoate]", "values": [
      {"measurement": "number of dead female Homalodisca coagulata", "setting": "[2]; [5]", "value": 1},
      {"measurement": "number of dead female Homalodisca coagulata", "setting": "[2]; [6]", "value": 1},
      {"measurement": "number of dead female Homalodisca coagulata", "setting": "[2]; treatment C: recommended dose", "value": 0},
      {"measurement": "number of dead female Homalodisca coagulata", "setting": "[2]; [7]", "value": 0}
    ]},
    {"compound": "CNC(=O)Oc1cc(C)c(SC)c(C)c1", "note": "[methiocarb]", "values": [
      {"measurement": "efficacy against GWSS (CDFA nursery shipping protocol list)", "setting": "GWSS", "value": "some efficacy"}
    ]},
    {"compound": "COC(C)(C)CCC[C@H](C)C/C=C/C(C)=C/C(=O)OC(C)C", "note": "[methoprene, isopropyl (2E,4E)-11-methoxy-3,7,11-trimethyl-2-2,4-dodecadienoate]", "values": [
      {"measurement": "impact on egg parasitoids", "setting": "[3]", "value": "no impact"},
      {"measurement": "reproductive activity of surviving treated females on dissection", "setting": "[4]; after 30 days", "value": "had not begun reproductive activity"},
      {"measurement": "eggs produced by treated females", "setting": "[4]; diapausing females, 30 days", "value": "No eggs were produced"},
      {"measurement": "time treated females remained reproductively inactive", "setting": "[4]; diapausing females, topical aqueous solution, summer conditions (32° C., 14:10 L:D), untreated controls oviposit after 10 days", "value": "at least 30 days"},
      {"measurement": "Brochosomes (within Malpigian tubules)", "setting": "[4]; [8]", "value": 1},
      {"measurement": "Fat body", "setting": "[4]; [8]", "value": 2},
      {"measurement": "Ova", "setting": "[4]; [8]", "value": 1},
      {"measurement": "Ovarioles", "setting": "[4]; treated diapausing females, one value per surviving female, dissected after thirty days, 32° C., 14:10 photoperiod", "value": 2},
      {"measurement": "number of dead female Homalodisca coagulata", "setting": "[2]; [5]", "value": 0},
      {"measurement": "number of dead female Homalodisca coagulata", "setting": "[2]; [6]", "value": 0},
      {"measurement": "number of dead female Homalodisca coagulata", "setting": "[2]; treatment C: recommended dose", "value": 0},
      {"measurement": "number of dead female Homalodisca coagulata", "setting": "[2]; [7]", "value": 0},
      {"measurement": "oviposition of treated reproductively-active females", "setting": "GWSS females", "value": "oviposited the eggs they contained then stopped"},
      {"measurement": "time without egg production post-treatment", "setting": "H. coagulata; 36 days was the maximum time tested", "value": "at least 36 days"},
      {"measurement": "accumulated fat body in treated females", "setting": "H. coagulata; dissection of adult females", "value": "high amount of accumulated fat body"},
      {"measurement": "effect on development of brochosomes and ovarioles", "setting": "H. coagulata; dissection of reproductive system of adult females", "value": "inhibits the development of both brochosomes and ovarioles"},
      {"measurement": "Brochosomes", "setting": "H. coagulata; [9]", "value": "1 and 1.5"},
      {"measurement": "Fat body", "setting": "H. coagulata; [9]", "value": "2.5 and 1.5 and 2"},
      {"measurement": "Ova", "setting": "H. coagulata; [9]", "value": 1},
      {"measurement": "Ovarioles", "setting": "H. coagulata; [9]", "value": 2},
      {"measurement": "eggs produced by treated females", "setting": "H. coagulata; newly eclosed females, 36 days", "value": "no eggs were produced"},
      {"measurement": "ovariole (reproductive) development on dissection", "setting": "H. coagulata; newly eclosed females, 36 days", "value": "inhibited"},
      {"measurement": "egg development and oviposition after treatment", "setting": "H. coagulata; newly eclosed females, after 36 days of summer conditions, untreated begin 10-12 days post eclosion", "value": "did not develop eggs or oviposit"},
      {"measurement": "effect of treating nymphs (mortality, time of development, morphology)", "setting": "GWSS nymphs", "value": "did not cause mortality, increase or decrease time of development, or induce morphological aberrations"}
    ]},
    {"compound": "O=C(NC(=O)c1c(F)cccc1F)Nc1ccc(OC(F)(F)C(F)OC(F)(F)F)c(Cl)c1", "note": "(stereo not shown) [novaluron]", "values": [
      {"measurement": "speed of activity against GWSS", "setting": "GWSS", "value": "too slow to be useful for eradication purposes"}
    ]},
    {"compound": "CC1(C)C(C=C(Cl)Cl)C1C(=O)OCc1cccc(Oc2ccccc2)c1", "note": "(stereo not shown) [permethrin]", "values": [
      {"measurement": "efficacy against GWSS (CDFA nursery shipping protocol list)", "setting": "GWSS", "value": "some efficacy"}
    ]}
  ]
}
